Experimental data taken from patent US20130158059A1, “NILOTINIB SALTS AND CRYSTALLINE FORMS THEREOF” (TEVA PHARMACEUTICAL INDUSTRIES LTD., priority 2010, published 2013).
Counter-ions that a name gives are not always drawn.

How the values were obtained:
[1] = Polymorphic stability on exposure to ethanol or methanol vapors; assay type: physicochemical; conditions: exposed to ethanol or methanol vapors, about RT, about 1 hour to about 24 hours
Text: As discussed above, Nilotinib HBr form XI has advantageous properties. In particular, the crystalline Nilotinib HBr form XI of the present invention is polymorphically stable. […] This stability is an advantage for the production, storage and processing of pharmaceuticals comprising Nilotinib HBr.

[2] = Thermal polymorphic stability (heating of the crystalline form); assay type: physicochemical; conditions: heated up to 200° C.
Text: As discussed above, Nilotinib L-tartrate Form IV has advantageous properties.

Compound	polymorphic stability (conversion to other forms of Nilotinib HBr) [1]	thermal polymorphic stability (conversion to other forms) [2]
Cc1cn(-c2cc(NC(=O)c3ccc(C)c(Nc4nccc(-c5cccnc5)n4)c3)cc(C(F)(F)F)c2)cn1 [Nilotinib HBr form XI, Nilotinib hydrobromide]	does not convert to other forms of Nilotinib HBr	
Nilotinib L-tartrate [Nilotinib L-tartrate Form IV]		does not convert to other forms
